A word on the Km: it is the concentration of substrate that gives half-maximal velocity.

From patent US10570426B2, “Method for producing methacrylic acid ester and novel methacrylic acid ester synthetase” (Mitsubishi Chemical Corporation, priority 2014, dated 2020) come the findings set out here.

Test [1] concerns AAT derived from Chamaemelum nobile. Description: Substrate specificity of AAT derived from Chamaemelum nobile. The test is classed as biochemical. To be noted: 0.12 mM acyl-CoA, pH 8.5, butyl methacrylate = 100%; for Relative activity with ethanol: 40 mM ethanol; for Relative activity with n-butanol: 40 mM n-butanol; for Relative activity with n-hexanol: 40 mM n-hexanol; for Relative activity with methanol: 40 mM methanol. The protocol:
The substrate specificity of AAT was evaluated by the purified fraction obtained by MonoQ 5/50 GL column chromatography in Example 9.
In a 2-mL capacity screw vial, a reaction solution (50 mM Tris-HCl (pH 8.5), 40 mM alcohol, 0.12 mM acyl-CoA) was prepared, into which the purified fraction was added to be 500 μL. The vial was sealed and the mixture was reacted at 30° C. for one hour.
After the reaction was completed, 50 μL of 10 mM 2-hexanon was added as the internal sstandard, and solvent extraction was conducted using 200 μL octane or hexane. Centrifugation was conducted and 8 μL of the separated liquid was injected into GC to measure the ester produced through the enzymatic reaction. The amount of ester was calculated by the calibration curve using an internal standard method. The GC measuring conditions were set the same as in Example 9 except that the column temperature was adjusted appropriately for each of the target esters (see Table 4). To determine the quantity of n-butyl propionate, since the present column is unable to separate its peak from the peak of n-butanol, the absolute calibration curve method was employed under the GC-MS analysis conditions the same as in Example 1 (however, temperature conditions were changed to 80° C.→1 min→10° C./min→200° C.·5 min).
Relative activity values are shown based on the specific activity of butyl methacrylate set as 100%.

Test [2] shares this test system. Description: Km of AAT derived from Chamaemelum nobile. To be noted: 40 mM n-hexanol, Tris-HCl pH 8.5, 30° C., 2 hours. It counts as biochemical. The protocol: The Km values for methacrylyl-CoA and acetyl-CoA were measured using the purified fraction obtained by MonoQ 5/50 GL column chromatography in Example 9. A 500 μL reaction solution was prepared by adding the purified fraction, 40 mM n-hexanol and methacrylyl-CoA or acetyl-CoA at each concentration to a 50 mM Tris-HCl buffer (pH 8.5). The vial was sealed, and reaction was carried out at 30° C. for 2 hours.
After the reaction was completed, the same GC analysis as in Example 10 was conducted to measure the ester produced in the enzymatic reaction. The […] (Km) was applied to a Michaelis-Menten expression to calculate the values using a Kaleidagraph software made by HULINKS.

As for `CCCCCC(=O)SCCNC(=O)CCNC(=O)[C@H](O)C(C)(C)COP(=O)(O)OP(=O)(O)OC[C@H]1O[C@@H](n2cnc3c(N)ncnc32)[C@H](O)[C@@H]1OP(=O)(O)O` [hexanoyl-CoA], in test [1], the “Relative activity with ethanol” value is given as 11% and the “Relative activity with n-butanol” value came to 21%.

As to `CC(=O)SCCNC(=O)CCNC(=O)[C@H](O)C(C)(C)COP(=O)(O)OP(=O)(O)OC[C@H]1O[C@@H](n2cnc3c(N)ncnc32)[C@H](O)[C@@H]1OP(=O)(O)O` [acetyl-CoA], in test [1], the “Relative activity with n-butanol” value is listed as 37% and the “Relative activity with n-hexanol” value was found to be 84%. In test [2], the Km was 711 µM.

`CCCC(=O)SCCNC(=O)CCNC(=O)[C@H](O)C(C)(C)COP(=O)(O)OP(=O)(O)OC[C@H]1O[C@@H](n2cnc3c(N)ncnc32)[C@H](O)[C@@H]1OP(=O)(O)O` [butyryl-CoA]: the “Relative activity with n-butanol” value in test [1] is listed as 40%.

As to `CC(C)C(=O)SCCNC(=O)CCNC(=O)[C@H](O)C(C)(C)COP(=O)(O)OP(=O)(O)OC[C@H]1O[C@@H](n2cnc3c(N)ncnc32)[C@H](O)[C@@H]1OP(=O)(O)O` [isobutyryl-CoA], in test [1], the “Relative activity with ethanol” value was 5% and the “Relative activity with n-butanol” value was determined as 114%.

For the compound `C=C(C)C(=O)SCCNC(=O)CCNC(=O)[C@H](O)C(C)(C)COP(=O)(O)OP(=O)(O)OC[C@H]1O[C@@H](n2cnc3c(N)ncnc32)[C@H](O)[C@@H]1OP(=O)(O)O` [methacrylyl-CoA], in test [1], the “Relative activity with ethanol” value came out at 4%, the “Relative activity with methanol” value was determined as 1%, the “Relative activity with n-butanol” value came to 100% and the “Relative activity with n-hexanol” value stood at 182%. The Km in test [2] came to 41 µM.

Turning to `CCC(=O)SCCNC(=O)CCNC(=O)[C@H](O)C(C)(C)COP(=O)(O)OP(=O)(O)OC[C@H]1O[C@@H](n2cnc3c(N)ncnc32)[C@H](O)[C@@H]1OP(=O)(O)O` [propionyl-CoA], in test [1], the “Relative activity with methanol” value turned out to be 4% and the “Relative activity with n-butanol” value came to 136%.
